According to publication PMC11966747, “Next Generation Risk Assessment of Acute Neurotoxicity from Organophosphate Exposures Using the In Vitro–In Silico Derived Dietary Comparator Ratio” (Environmental Science & Technology, 2025):
Read-outs that look alike come from different tables or passages of the source.

Legend:
[1] = QSAR-based prediction; ref Punt et al. 2022; Moerenhout et al. 2024; cited from earlier work
[2] = target: T1, erythrocyte AChE (Homo sapiens, UniProt P22303); settings: cited from earlier work; for reported or expected adverse health outcome: human, ref Table S2
T1 sequence (P22303 32-617 isoform P22303-2 limits assumed): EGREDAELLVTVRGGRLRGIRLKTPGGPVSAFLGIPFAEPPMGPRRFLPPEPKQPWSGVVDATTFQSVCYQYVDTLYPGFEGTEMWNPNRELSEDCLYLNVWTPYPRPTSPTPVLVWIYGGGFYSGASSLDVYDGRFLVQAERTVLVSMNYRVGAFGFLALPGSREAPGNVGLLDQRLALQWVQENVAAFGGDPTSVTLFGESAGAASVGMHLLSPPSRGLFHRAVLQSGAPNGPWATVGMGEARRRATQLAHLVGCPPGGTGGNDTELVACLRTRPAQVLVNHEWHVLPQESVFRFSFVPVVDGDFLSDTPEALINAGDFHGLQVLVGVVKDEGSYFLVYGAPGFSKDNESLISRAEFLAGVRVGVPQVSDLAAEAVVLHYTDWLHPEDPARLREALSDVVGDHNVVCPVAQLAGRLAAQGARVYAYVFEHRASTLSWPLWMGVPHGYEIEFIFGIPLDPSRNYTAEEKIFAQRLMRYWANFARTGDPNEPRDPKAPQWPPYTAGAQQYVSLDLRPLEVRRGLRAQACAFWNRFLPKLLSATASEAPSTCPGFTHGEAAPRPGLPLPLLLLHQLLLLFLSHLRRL

[3] = target: T1, erythrocyte AChE; experiment: Exposure Activity Ratio (EAR) and Dietary Comparator Ratio (DCR) calculation; set-up: from tissue; host or cells: human whole peripheral blood (erythrocytes), K2EDTA anticoagulant; settings: human
Method: The DCR value for an exposure scenario was calculated as the ratio of EARtest and EARcomparator (eq 1). The EARtest is scenario-specific and was defined with the IC50 of the tested organophosphate oxon for in vitro erythrocyte AChE inhibition and the PBK model-simulated CBmaxoxon at the defined exposure level (eq 2).
The DCR-based predictions were evaluated by comparing the obtained DCR results with actual knowledge of the adverse health effects reported for the respective exposure scenarios. Adverse effects cannot be ruled out for human exposure scenarios with a DCR result greater than 1, while exposure scenarios with a DCR result less than or equal to 1 are considered to raise no safety concern.[18]−[20] Once validated as an adequate predicting tool, the DCR approach was applied for evaluating the safety of exposure scenarios, for which no information on the resulting toxic outcomes was reported at the defined dose levels for humans.

[4] = 214 mg/kg BW (15 g) acute oral, person, ref Klemmer et al. 1978
[5] = 357 mg/kg BW (25 g) acute oral, person seven, ref Klemmer et al. 1978
[6] = 357 mg/kg BW (25 g) acute oral, person six, ref Klemmer et al. 1978
[7] = 643 mg/kg BW (45 g) acute oral, person, ref Klemmer et al. 1978

CCOP(=S)(OCC)Oc1cc(C)nc(C(C)C)n1 [diazinon]
Oral absorption rate constant [1]: 0.73 h⁻¹
Reported erythrocyte AChE activity/inhibition ([2]; 0.011 mg/kg BW single oral, 4 male and 1 female volunteers, ref Garfitt et al. 2002): No erythrocyte AChE inhibition
Reported erythrocyte AChE activity/inhibition ([2]; 0.03 mg/kg BW single oral, 7 male volunteers, ref APVMA. 2011, US EPA. 2001 (original data of Boyeson. 2000)): No erythrocyte AChE inhibition
Reported erythrocyte AChE activity/inhibition ([2]; 0.12 mg/kg BW single oral, 7 male volunteers, ref APVMA. 2011, US EPA. 2001 (original data of Boyeson. 2000)): No erythrocyte AChE inhibition
Reported erythrocyte AChE activity/inhibition ([2]; 0.20 mg/kg BW single oral, 7 male volunteers, ref APVMA. 2011, US EPA. 2001 (original data of Boyeson. 2000)): No erythrocyte AChE inhibition
Reported erythrocyte AChE activity/inhibition ([2]; 0.21 mg/kg BW single oral, 7 male volunteers, APVMA: significant inhibition, US EPA: limited, ref APVMA. 2011, US EPA. 2001 (original data of Boyeson. 2000)): Conflicting opinions
Reported concomitant effects (signs and symptoms) ([2]; 0.21 mg/kg BW single oral, 7 male volunteers, might occur, ref APVMA. 2011, US EPA. 2001 (original data of Boyeson. 2000)): Mild clinical signs or symptoms
Reported erythrocyte AChE activity/inhibition ([2]; 0.30 mg/kg BW single oral, 1 volunteer, APVMA: inhibition greater than at 0.20 mg/kg BW, US EPA: no inhibition, ref APVMA. 2011, US EPA. 2001 (original data of Boyeson. 2000)): Conflicting opinions
Reported concomitant effects (signs and symptoms) ([2]; 0.30 mg/kg BW single oral, 1 volunteer, might occur, ref APVMA. 2011, US EPA. 2001 (original data of Boyeson. 2000)): Mild clinical signs or symptoms
Reported concomitant effects (signs and symptoms) ([2]; 200 mg/kg BW (14 - 57 g) acute oral, 14 males and 11 females, ref APVMA. 2011 (original data of Mutalik et al. 1962)): Toxic symptoms occurred
Reported concomitant effects (signs and symptoms) [2, 4]: toxic symptoms occurred
Reported erythrocyte AChE activity/inhibition [2, 4]: Significantly decreased
Reported concomitant effects (signs and symptoms) ([2]; 293 mg/kg BW (22 g) acute oral, person, ref Poklis et al. 1980): Died
Reported concomitant effects (signs and symptoms) ([2]; 323 mg/kg BW (22.6 g) acute oral, person, ref APVMA. 2011 (original data of Banerjee. 1967)): Toxic symptoms occurred
Reported concomitant effects (signs and symptoms) [2, 5]: toxic symptoms occurred
Reported erythrocyte AChE activity/inhibition [2, 5]: Significantly decreased
Reported concomitant effects (signs and symptoms) [2, 6]: toxic symptoms occurred
Reported erythrocyte AChE activity/inhibition [2, 6]: Significantly decreased
Reported concomitant effects (signs and symptoms) ([2]; 429 mg/kg BW (30 g) acute oral, person, ref Martinez-Chuecos et al. 1992): Toxic symptoms occurred
Reported concomitant effects (signs and symptoms) [2, 7]: toxic symptoms occurred
Reported erythrocyte AChE activity/inhibition [2, 7]: Significantly decreased
reported or expected adverse health outcome ([2]; single oral 0.011 mg/kg BW, 0.011 mg/kg): negative
reported or expected adverse health outcome ([2]; single oral 0.011 mg/kg BW, listed as Diazinon, 0.011 mg/kg): No
reported or expected adverse health outcome ([2]; single oral 0.03 mg/kg BW, 0.03 mg/kg): negative
reported or expected adverse health outcome ([2]; single oral 0.03 mg/kg BW, listed as Diazinon, 0.03 mg/kg): No
reported or expected adverse health outcome ([2]; single oral 0.12 mg/kg BW, 0.12 mg/kg): negative
reported or expected adverse health outcome ([2]; single oral 0.12 mg/kg BW, listed as Diazinon, 0.12 mg/kg): No
reported or expected adverse health outcome ([2]; single oral 0.20 mg/kg BW, 0.2 mg/kg): negative
reported or expected adverse health outcome ([2]; single oral 0.20 mg/kg BW, listed as Diazinon, 0.2 mg/kg): No
reported or expected adverse health outcome ([2]; single oral 200 mg/kg BW, 200 mg/kg): positive
reported or expected adverse health outcome ([2]; single oral 200 mg/kg BW, listed as Diazinon, 200 mg/kg): Yes
reported or expected adverse health outcome ([2]; single oral 214 mg/kg BW, 214 mg/kg): positive
reported or expected adverse health outcome ([2]; single oral 214 mg/kg BW, listed as Diazinon, 214 mg/kg): Yes
reported or expected adverse health outcome ([2]; single oral 293 mg/kg BW, 293 mg/kg): positive
reported or expected adverse health outcome ([2]; single oral 293 mg/kg BW, listed as Diazinon, 293 mg/kg): Yes
reported or expected adverse health outcome ([2]; single oral 323 mg/kg BW, 323 mg/kg): positive
reported or expected adverse health outcome ([2]; single oral 323 mg/kg BW, listed as Diazinon, 323 mg/kg): Yes
reported or expected adverse health outcome ([2]; single oral 357 mg/kg BW, 357 mg/kg): positive
reported or expected adverse health outcome ([2]; single oral 357 mg/kg BW, listed as Diazinon, 357 mg/kg): Yes
reported or expected adverse health outcome ([2]; single oral 429 mg/kg BW, 429 mg/kg): positive
reported or expected adverse health outcome ([2]; single oral 429 mg/kg BW, listed as Diazinon, 429 mg/kg): Yes
reported or expected adverse health outcome ([2]; single oral 643 mg/kg BW, 643 mg/kg): positive
reported or expected adverse health outcome ([2]; single oral 643 mg/kg BW, listed as Diazinon, 643 mg/kg): Yes
calculated DCR value ([3]; single oral 0.011 mg/kg BW): 2.1 × 10^–4
calculated EARtest value ([3]; single oral 0.011 mg/kg BW): 8.3 × 10^–6
calculated DCR value ([3]; single oral 0.03 mg/kg BW): 5.7 × 10^–4
calculated EARtest value ([3]; single oral 0.03 mg/kg BW): 2.3 × 10^–5
calculated DCR value ([3]; single oral 0.12 mg/kg BW): 2.3 × 10^–3
calculated EARtest value ([3]; single oral 0.12 mg/kg BW): 9.1 × 10^–5
calculated DCR value ([3]; single oral 0.20 mg/kg BW): 3.8 × 10^–3
calculated EARtest value ([3]; single oral 0.20 mg/kg BW): 1.5 × 10^–4
calculated EARtest value ([3]; single oral 0.21 mg/kg BW): 1.6 × 10^–4
calculated EARtest value ([3]; single oral 0.30 mg/kg BW): 2.3 × 10^–4
calculated DCR value ([3]; single oral 200 mg/kg BW): 2.1
calculated EARtest value ([3]; single oral 200 mg/kg BW): 0.084
calculated DCR value ([3]; single oral 214 mg/kg BW): 2.2
calculated EARtest value ([3]; single oral 214 mg/kg BW): 0.085
calculated DCR value ([3]; single oral 293 mg/kg BW): 2.3
calculated EARtest value ([3]; single oral 293 mg/kg BW): 0.089
calculated DCR value ([3]; single oral 323 mg/kg BW): 2.3
calculated EARtest value ([3]; single oral 323 mg/kg BW): 0.090
calculated DCR value ([3]; single oral 357 mg/kg BW): 2.3
calculated EARtest value ([3]; single oral 357 mg/kg BW): 0.091
calculated DCR value ([3]; single oral 429 mg/kg BW): 2.3
calculated EARtest value ([3]; single oral 429 mg/kg BW): 0.093
calculated DCR value ([3]; single oral 643 mg/kg BW): 2.4
calculated EARtest value ([3]; single oral 643 mg/kg BW): 0.095
